Results reported in patent US9134325B2, “Resistance biomarkers for HDAC inhibitors” (Celgene Corporation, priority 2012, dated 2015).
Values joined by “and” are separate entries in the source; they are usually repeats but may differ in a detail not shown here. Identical values can stand only once.

Legend:
class 1 HDACs 1 and 2 = conditions: data from Bradner et al., FIG. 6; cited from earlier work
SKOV3 TSPYL5 KD cells = test: Cell growth assay (Cell Titer-Glo) in SKOV3 cells expressing TSPYL5 shRNA; format: cell-based
Method: (§1) Sensitivity of cells to HDAC inhibitor treatment is expressed as their S-value (S), which is a dimensionless compound value generated by adding the values of IC50 and the growth rate (GR) at the maximum drug concentration used to determine the IC50. The term (maximum drug concentration/200) is added in the equation below to achieve equal weighting of the S-value for IC50 and GR. S=IC50+(GR+100)×(maximum drug concentration/200) See FIG. 1 for an example of an S value calculation and explanation of GR.
(§2) To determine cell growth IC50 and GR at a given drug concentration, growth was plotted against drug concentration as a percentage of the number of cells present at the beginning of the experiment. Cells were plated in 96-well plates and allowed to attach and grow overnight. The following day, the cells were treated with serial dilutions of test compound. The viable cells were measured at day 0 (24 hours after plating) and day 3 (72 hours after adding the tested compound) using Cell Titer-Glo. Growth was calculated compared to day 0.
The plot generated two key data, the IC50 value and the % growth at the highest tested compound concentration (GR). […]
Effect of knocking down TSPYL5 expression using shRNA on IC50, GR and S values of romidepsin treatment. […] Knockdown of TSPYL5 in SKOV3 TSPYL5 KD cells was verified using western blot and quantitative PCR. […]

SKOV3 NS cells = test: Cell growth assay (Cell Titer-Glo) in SKOV3 cells expressing non-silencing control shRNA; format: cell-based; conditions: for IC50: romidepsin, 5 independent experiments
Method: as §1, §2
(§3) The plot generated two key data, the IC50 value and the % growth at the highest tested compound concentration (GR). The highest concentration tested for romidepsin was 1000 nM.
Effect of knocking down TSPYL5 expression using shRNA on IC50, GR and S values of romidepsin treatment. SKOV3 cells expressing either TSPYL5 shRNA (SKOV3 TSPYL5 KD) or non-silencing control shRNA (SKOV3 NS) were created using lentiviral infection. Knockdown of TSPYL5 in SKOV3 TSPYL5 KD cells was verified using western blot and quantitative PCR. Expression of TSPYL5 in these cells was reduced by 70%. After selection of stable pools with puromycin, cells were treated with varying concentrations of romidepsin for determination of IC50, GR and S value. Data from 5 independent experiments are shown. SKOV3 TSPYL5 KD cells have lower IC50s, show […] growth rate (GR) and have thus smaller S values than SKOV3 NS cells, meaning these cells are more sensitive to treatment with romidepsin. The data are plotted in FIG. 5. Differences between the 2 lines are significant (paired t test).

cell line panel = test: Cell line panel viability screen (Cell Titer-Glo), S-value; format: cell-based
Method: as §1, §2, §3
The IC50s in these experiments could range from 0-1000 nM. […] Growth at the highest drug concentration tested ranged from −100 to +100. For the calculation of the S-Value, 100 was added to the numerical value of the observed growth, so that only positive numbers were generated (after adding 100, the range was from 0-200). Since IC50s and growth at the maximum drug concentration tested have different numerical ranges (0-1000 as compared to 0-200), the value for growth inhibition was multiplied by the maximum drug concentration used/200. This means that in the example given, both IC50 and GR could contribute values of 0-1000 to the S-value.
A cell line panel viability screen was used to compare the effects of a 6 hour and 72 hour treatment with romidepsin across a wide variety of cell lines. […] The S-Value was computed for the 6 h treatment and ranged from 5 for the most sensitive cell lines to 2000 for the most resistant cell lines. To identify genes whose expression correlated with sensitivity to HDAC inhibitor treatment, we applied two way ANOVA to select genes that were correlated with sensitivity. […] The most overexpressed gene in the resistant subgroup, ABCB1 (Res/Sen=29.6) is known to cause resistance to romidepsin treatment. This approach identified novel genes that correlated with resistance and/or sensitivity to the HDAC inhibitors but not tissue origin.
A cell line panel viability screen was used to compare the effects of romidepsin across a wide variety of cell lines and is shown in FIG. 3.

[1] = system: primary human tumors propagated in mice; test: Clonogenic two-layer soft agar assay of primary patient tumor explants; format: cell-based; conditions: IC50 of clonogenic assay against TSPYL5 expression, FIG. 4
Method: Primary human tumors were propagated in mice. Tumors were dissociated and their sensitivity to romidepsin was tested using a clonogenic assay.
The clonogenic assay was performed in a 24-well format according to a modified two-layer soft agar assay introduced by Hamburger & Salmon (Hamburger A W, Salmon S E. Primary bioassay of human tumor stem cells. Science 197:461 (1977)). Briefly, cells were seeded on a bottom layer of growth medium supplemented with 0.4% (w/v) agar. Cells were added in 0.2 ml of the same medium supplemented with 0.4% (w/v) agar. Test compounds were applied diluted in culture medium. Cultures were incubated at 37° C. and 7.5% CO2 in a humidified atmosphere for up to 21 days. After 4-21 days, colonies were counted and drug effect was expressed as percent colony formations compared to untreated controls.

HDF TSPYL5 KD cells = test: Cell growth assay in human dermal fibroblasts with TSPYL5 knockdown; format: cell-based; conditions: HDF TSPYL5 KD versus HDF NS, FIG. 8
Source text: FIG. 8 depicts the effect of knockdown of TSPYL5 expression on sensitivity of HDF cells to romidepsin using shRNA, as measured by the effect of romidepsin treatment on IC50 (Panel A), growth rate (GR) (Panel B) and S value (Panel C). Sensitivity of TSPYL5 knockdown cells to romidepsin is increased as measured by S value and growth rate. HDF cells expressing either TSPYL5 shRNA (HDF TSPYL5 KD) or non-silencing control shRNA (HDF NS) were created using lentiviral infection. Knockdown of TSPYL5 in HDF TSPYL5 KD cells was verified using western blot and quantitative PCR. Expression of TSPYL5 in these cells was reduced by >70%. After selection of stable pools with puromycen, cells were treated with varying concentrations of romidepsin for determination of IC50, GR and S value. The data shown are means and standard deviations from 8 independent experiments. Panel A: Romidepsin IC50s for HDF TSPYL5 KD cells and HDF NS cells. Panel B: Romidepsin GR for HDF TSPYL5 KD cells and HDF NS cells. […]
as §2, with “Cells were plated in 96-well plates and allowed to attach and grow overnight. The following day, the cells were treated with serial dilutions of test compound.” left out

class 2 HDAC 6 = target: T1, class 2 HDAC 6 (Homo sapiens, UniProt Q9UBN7); conditions: data from Bradner et al., FIG. 6; cited from earlier work
T1 sequence (Q9UBN7 1-1215): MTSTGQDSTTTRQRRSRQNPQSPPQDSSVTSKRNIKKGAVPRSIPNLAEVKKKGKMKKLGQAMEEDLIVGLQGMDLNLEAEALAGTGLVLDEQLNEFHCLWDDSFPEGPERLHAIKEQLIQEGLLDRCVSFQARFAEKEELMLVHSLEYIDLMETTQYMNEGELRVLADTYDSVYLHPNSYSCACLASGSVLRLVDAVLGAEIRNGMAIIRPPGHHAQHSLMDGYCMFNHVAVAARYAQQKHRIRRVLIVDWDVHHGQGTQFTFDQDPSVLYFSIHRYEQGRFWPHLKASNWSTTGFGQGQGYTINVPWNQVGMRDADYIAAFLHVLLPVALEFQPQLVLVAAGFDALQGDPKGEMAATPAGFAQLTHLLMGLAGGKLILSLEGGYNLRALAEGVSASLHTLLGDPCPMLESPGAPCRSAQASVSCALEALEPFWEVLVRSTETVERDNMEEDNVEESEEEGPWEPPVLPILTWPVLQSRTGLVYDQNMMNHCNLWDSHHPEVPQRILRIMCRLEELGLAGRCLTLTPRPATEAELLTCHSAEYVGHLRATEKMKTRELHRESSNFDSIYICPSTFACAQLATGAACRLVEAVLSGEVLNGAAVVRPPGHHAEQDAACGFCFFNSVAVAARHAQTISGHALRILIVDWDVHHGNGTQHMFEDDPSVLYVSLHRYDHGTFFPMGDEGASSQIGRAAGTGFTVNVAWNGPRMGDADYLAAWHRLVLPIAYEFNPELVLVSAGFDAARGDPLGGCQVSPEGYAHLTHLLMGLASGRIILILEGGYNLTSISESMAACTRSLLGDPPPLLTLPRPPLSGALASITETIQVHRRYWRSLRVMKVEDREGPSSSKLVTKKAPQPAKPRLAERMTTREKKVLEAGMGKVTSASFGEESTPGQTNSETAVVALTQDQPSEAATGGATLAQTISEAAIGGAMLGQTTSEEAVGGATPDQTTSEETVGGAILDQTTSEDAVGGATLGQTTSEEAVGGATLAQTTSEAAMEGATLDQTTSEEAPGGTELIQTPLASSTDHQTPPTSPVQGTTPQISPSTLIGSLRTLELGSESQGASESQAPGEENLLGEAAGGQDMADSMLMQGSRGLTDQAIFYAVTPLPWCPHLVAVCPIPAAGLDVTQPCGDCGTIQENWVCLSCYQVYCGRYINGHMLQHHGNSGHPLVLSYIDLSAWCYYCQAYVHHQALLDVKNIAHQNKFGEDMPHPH

Row | SMILES | Inhibition of class 1 HDACs 1 and 2 (class 1 HDACs 1 and 2) | S value (SKOV3 TSPYL5 KD cells; S=IC50+(GR+100)×(maximum drug concentration/200)) | GR (growth at the highest tested concentration) (SKOV3 TSPYL5 KD cells; highest romidepsin concentration 1000 nM, relative to day 0) | IC50 (SKOV3 NS cells; Homo sapiens, SK-OV-3, SKOV3 NS (non-silencing control shRNA)) [nM] | IC50 (SKOV3 NS cells; SKOV3 NS (non-silencing control shRNA)) | S value (SKOV3 NS cells; SKOV3 NS, S=IC50+(GR+100)×(maximum drug concentration/200)) | Sensitivity by tissue of origin (cell line panel; 6 h drug treatment, S value, FIG. 2B) | S-value across cell lines (cell line panel; 6 h drug treatment, most sensitive to most resistant cell lines) | Sensitivity of cell lines (cell line panel; 72 hour treatment) | Sensitivity of cell lines expressing high levels of TSPYL5 (cell line panel; S value against TSPYL5 gene expression, FIG. 3) | IC50 (cell line panel; read-out: IC50 of cell growth) [nM] | Sensitivity of primary tumors with high TSPYL5 expression [1] | Effect of TSPYL5 knockdown on sensitivity of HDF cells (HDF TSPYL5 KD cells) | Inhibition of class 2 HDAC 6 (class 2 HDAC 6)
1 | Nc1ccccc1NC(=O)c1ccc(CNC(=O)OCc2cccnc2)cc1 [entinostat] | inhibit |  |  |  |  |  |  |  |  |  |  |  |  | 
2 | C/C=C1\NC(=O)[C@H]2CSSCC/C=C/[C@H](CC(=O)N[C@H](C(C)C)C(=O)N2)OC(=O)[C@H](C(C)C)NC1=O [romidepsin] | inhibit | 156 and 115 and 105 and 112 and 135 | −92.5% and −88.6% and −93.2% and −86.1% and −84.3% | 141 | 136 nM and 139 nM and 98 nM and 162 nM | 291 and 253 and 256 and 230 and 243 | blood cell lines show the greatest sensitivity | 4-2000 | majority of the tested cell lines showed sensitivity | no cell line expressing high levels of TSPYL5 was sensitive | 97.3 | resistant | increases sensitivity | 
3 | O=C(CCCCCCC(=O)Nc1ccccc1)NO [vorinostat] |  |  |  |  |  |  |  |  |  |  |  |  |  | inhibit
